Laboratory results: patent US7674456B2, “Breast cancer cell lines and uses thereof” (priority 2004, dated 2010)

System: tumor cells from right chest wall lesion (mammary carcinoma cells)
Assay: Ex vivo drug response testing of fresh tumor specimen (DISC, MTT and redox assays)
Type: cell-based, human
Set-up: key to ASSAY RESULT: Sensitive: the drug inhibits the cell growth or proliferation of the cell to a greater degree than is expected for an appropriate control; Resistant: the drug inhibits the cell growth or proliferation of the cell to a lesser degree than is expected for an appropriate control
Details: for ASSAY RESULT: fresh tumor cells, compared with a database of assays of similar technical characteristics; for activity in vitro (in words): summary of the table
Protocol: An unfixed portion of the tumor was further analyzed for response to several drugs. A specimen consisted of 1 piece of yellow, white, and red tissue, obtained from the right chest wall lesion. The piece was soft and sticky in texture, measured 0.8×1.4 cm, and weighed 0.47 gm. The specimen was minced to individual pieces smaller than one mm with surgical scissors and digested for 1.3 hours with collagenase-DNAse. Viable tumor cells were enriched by Ficoll-diatriozate centrifugation. Cytospin slides were prepared, air-dried, and stained with Fast Green/Hamatoxyline-eosin. On this cytology preparation obtained from mechanically-dissociated, enzyme-digested tissue, there was a collection of somewhat pleomorphic tumor cells, consistent with mammary carcinoma cells. Tumor cells were present as loose cell clusters (60% of total tumor cells) and, less commonly, as discohesive single cells (40% of total tumor cells). The tumor cells measured 22-25 microns in diameter and had N/N+C ratios of 0.6-0.8. […] Nucleoli were variably prominent. There were no cells with large clear globular areas or secretory material within the cytoplasm. There was slight cytoplasmic and nuclear molding. Approximately 40% of the enriched tumor cell fraction consisted of normal-appearing connective tissue cells and inflammatory cells.
Cells were plated for testing in 3 different assay endpoints. In the DISC assay, the entire contents of the cell culture were cytocentrifuged onto permanent microscope slides and differentially stained to allow discrimination of normal and neoplastic cells and living and dead cells. […] The MTT assay measures mitochondrial metabolism in the entire cell culture. The redox assay measures total metabolic activity in the entire cell culture, using the Alamar Blue reagent to index the oxygen reduction potential of the culture medium. Because of the very low yield of viable tumor cells, only a small drug panel could be tested. Additionally, some drugs could be tested only in a single assay system.
At the conclusion of the culture period, there was 10% spontaneous attrition in viable tumor cell numbers. Formazan signal in the MTT assay was moderate, reflective of moderate cell metabolism, and allowing for an MTT assay of good quality. Percentage of tumor cells as a percentage of total viable cells at the conclusion of the culture was approximately 85. DISC and MTT assays were in reasonably good agreement. The overall technical quality of the assays was good, marred only by the low yield of tumor cells, which severely limited the scope of testing.
Results were compared with a database of assays which had similar technical characteristics, as the technical characteristics of these assays influence the in vitro results, along with the intrinsic drug resistance of the tumor cells. By controlling for technical characteristics such as spontaneous cell loss, metabolic signal at the conclusion of the culture, and tumor cell clustering, biological correlations are improved.

Compound	ASSAY RESULT	activity in vitro (in words)	activity in vitro (in words) (listed as paclitaxel (Taxol))
N.N.O=C([O-])C1(C(=O)[O-])CCC1.[Pt+2] [Carboplatin]	Resistant	poor activity	–
O=P1(N(CCCl)CCCl)NC(OO)CCO1 (centres unmarked) [Cyclophosphamide (4HC)]	Sensitive	above-average activity	–
COc1cccc2c1C(=O)c1c(O)c3c(c(O)c1C2=O)C[C@@](O)(C(=O)CO)C[C@@H]3O[C@H]1C[C@H](N)[C@H](O)[C@H](C)O1 [Doxorubicin]	Intermediate	–	–
COc1cc([C@@H]2c3cc4c(cc3[C@@H](O[C@@H]3O[C@@H]5CO[C@@H](C)O[C@H]5[C@H](O)[C@H]3O)[C@H]3COC(=O)[C@H]23)OCO4)cc(OC)c1O [Etoposide]	Sensitive	above-average activity	–
O=c1[nH]cc(F)c(=O)[nH]1 [Fluorouracil]	Intermediate	–	–
O=C1c2c(O)ccc(O)c2C(=O)c2c(NCCNCCO)ccc(NCCNCCO)c21 [Mitoxantrone]	Intermediate	–	–
CC(=O)O[C@H]1C(=O)[C@@]2(C)[C@H]([C@H](OC(=O)c3ccccc3)[C@]3(O)C[C@H](OC(=O)[C@H](O)[C@@H](NC(=O)c4ccccc4)c4ccccc4)C(C)=C1C3(C)C)[C@]1(OC(C)=O)CO[C@@H]1C[C@@H]2O [Taxol (Paclitaxel), Paclitaxel]	Sensitive	best drug in vitro	above-average activity
CCC1=C[C@@H]2CN(C1)Cc1c([nH]c3ccccc13)[C@@](C(=O)OC)(c1cc3c(cc1OC)N(C)[C@H]1[C@@](O)(C(=O)OC)[C@H](OC(C)=O)[C@]4(CC)C=CCN5CC[C@]31[C@@H]54)C2 [Vinorelbine (Navelbine), Vinorelbine]	Intermediate	–	–
Gemcitabine + Cisplatin	Intermediate	–	–
